In ChEMBL document CHEMBL2440050 (ACS Med Chem Lett, 2013):
One block for each compound: values may come before it.

Tests used:
[1] = tested on: L1210; assay: Growth inhibition of mouse L1210 cells after 72 hrs by phosphatase assay; assay type: functional, cell-based; conditions: L1210, 72 h
[2] = tested on: HCT-116; assay: Ratio of IC50 for vinblastine-resistant human HCT116/VM46 cells overexpressing P-gp to IC50 for vinblastine-sensitive human HCT116 cells by phosphatase assay; assay type: functional
[3] = tested on: HCT-116/VM46; assay: Ratio of vinblastine IC50 to compound IC50 for vinblastine-resistant human HCT116/VM46 cells overexpressing P-gp by phosphatase assay; assay type: functional
[4] = tested on: HCT-116/VM46; assay: Growth inhibition of vinblastine-resistant human HCT116/VM46 cells overexpressing P-gp after 72 hrs by phosphatase assay; assay type: functional, cell-based; conditions: HCT-116/VM46, 72 h
[5] = tested on: L1210; assay: Ratio of vinblastine IC50 to compound IC50 for mouse L1210 cells by phosphatase assay; assay type: functional
[6] = tested on: HCT-116; assay: Ratio of vinblastine IC50 to compound IC50 for vinblastine-sensitive human HCT116 cells by phosphatase assay; assay type: functional
[7] = tested on: HCT-116; assay: Growth inhibition of vinblastine-sensitive human HCT116 cells after 72 hrs by phosphatase assay; assay type: functional, cell-based; conditions: HCT-116, 72 h
[8] = tested on: NCI-H520; assay: Ratio of vinblastine IC50 to compound IC50 for human NCI-H520 cells by MTS assay; assay type: functional
[9] = tested on: MDA-MB-468; assay: Growth inhibition of human MDA-MB-468 cells after 72 hrs by MTS assay; assay type: functional, cell-based; conditions: MDA-MB-468, 72 h
[10] = Ratio of vinblastine IC50 to compound IC50 for human SW403 cells by MTS assay; assay type: functional
[11] = tested on: HCC70; assay: Ratio of vinblastine IC50 to compound IC50 for human HCC70 cells by MTS assay; assay type: functional
[12] = tested on: ZR-75-1; assay: Ratio of vinblastine IC50 to compound IC50 for human ZR-75-1 cells by MTS assay; assay type: functional
[13] = tested on: MCF7; assay: Growth inhibition of human MCF7 cells after 72 hrs by MTS assay; assay type: functional, cell-based; conditions: MCF7, 72 h
[14] = tested on: PA-1; assay: Growth inhibition of human PA1 cells after 72 hrs by MTS assay; assay type: functional, cell-based; conditions: PA-1, 72 h
[15] = tested on: ZR-75-1; assay: Growth inhibition of human ZR-75-1 cells after 72 hrs by MTS assay; assay type: functional, cell-based; conditions: ZR-75-1, 72 h
[16] = tested on: NCI-H520; assay: Growth inhibition of human NCI-H520 cells after 72 hrs by MTS assay; assay type: functional, cell-based; conditions: NCI-H520, 72 h
[17] = tested on: HCT-116/VM46; assay: Ratio of vinblastine IC50 to compound IC50 for vinblastine-resistant human HCT116/VM46 cells overexpressing P-gp by MTS assay; assay type: functional
[18] = Growth inhibition of human LNCaP-FGC cells after 72 hrs by MTS assay; assay type: functional, cell-based; conditions: LNCaP-Clone-FGC
[19] = tested on: HCC1143; assay: Growth inhibition of human HCC1143 cells after 72 hrs by MTS assay; assay type: functional, cell-based; conditions: HCC1143, 72 h
[20] = Growth inhibition of human SW403 cells after 72 hrs by MTS assay; assay type: functional, cell-based; conditions: SW-403, 72 h
[21] = tested on: HCT-116; assay: Ratio of vinblastine IC50 to compound IC50 for vinblastine-sensitive human HCT116 cells by MTS assay; assay type: functional
[22] = Growth inhibition of human KPL4 cells after 72 hrs by MTS assay; assay type: functional, cell-based; conditions: KPL4, 72 h
[23] = Ratio of vinblastine IC50 to compound IC50 for human KPL4 cells by MTS assay; assay type: functional
[24] = tested on: HCT-116; assay: Growth inhibition of vinblastine-sensitive human HCT116 cells after 72 hrs by MTS assay; assay type: functional, cell-based; conditions: HCT-116, 72 h
[25] = tested on: HCT-116/VM46; assay: Growth inhibition of vinblastine-resistant human HCT116/VM46 cells overexpressing P-gp after 72 hrs by MTS assay; assay type: functional, cell-based; conditions: HCT-116/VM46, 72 h
[26] = tested on: AU565; assay: Ratio of vinblastine IC50 to compound IC50 for human AU565 cells by MTS assay; assay type: functional
[27] = tested on: PA-1; assay: Ratio of vinblastine IC50 to compound IC50 for human PA1 cells by MTS assay; assay type: functional
[28] = Growth inhibition of human LS 174T cells after 72 hrs by MTS assay; assay type: functional, cell-based; conditions: LS174T
[29] = Ratio of vinblastine IC50 to compound IC50 for human LNCaP-FGC cells by MTS assay; assay type: functional
[30] = tested on: T47D; assay: Ratio of vinblastine IC50 to compound IC50 for human T47D cells by MTS assay; assay type: functional
[31] = tested on: LS174T; assay: Ratio of vinblastine IC50 to compound IC50 for human LS 174T cells by MTS assay; assay type: functional
[32] = tested on: HCC70; assay: Growth inhibition of human HCC70 cells after 72 hrs by MTS assay; assay type: functional, cell-based; conditions: HCC70, 72 h
[33] = tested on: AU565; assay: Growth inhibition of human AU565 cells after 72 hrs by MTS assay; assay type: functional, cell-based; conditions: AU565, 72 h
[34] = tested on: T47D; assay: Growth inhibition of human T47D cells after 72 hrs by MTS assay; assay type: functional, cell-based
[35] = tested on: MDA-MB-468; assay: Ratio of vinblastine IC50 to compound IC50 for human MDA-MB-468 cells by MTS assay; assay type: functional
[36] = tested on: HCC1143; assay: Ratio of vinblastine IC50 to compound IC50 for human HCC1143 cells by MTS assay; assay type: functional

Compound: CC[C@]1(NC(=O)N2CCCCC2)C[C@H]2CN(CCc3c([nH]c4ccccc34)[C@@](C(=O)OC)(c3cc4c(cc3OC)N(C)[C@H]3[C@@](O)(C(=O)OC)[C@H](OC(C)=O)[C@]5(CC)C=CCN6CC[C@]43[C@@H]65)C2)C1
IC50 [1]: 5.5 nM

Compound: CC[C@]1(NC(=O)N2CCCC2)C[C@H]2CN(CCc3c([nH]c4ccccc34)[C@@](C(=O)OC)(c3cc4c(cc3OC)N(C)[C@H]3[C@@](O)(C(=O)OC)[C@H](OC(C)=O)[C@]5(CC)C=CCN6CC[C@]43[C@@H]65)C2)C1
IC50 [4]: 50 nM | IC50 [7]: 0.72 nM | IC50 [1]: 0.7 nM

Compound: CC[C@]1(NC(N)=O)C[C@H]2CN(CCc3c([nH]c4ccccc34)[C@@](C(=O)OC)(c3cc4c(cc3OC)N(C)[C@H]3[C@@](O)(C(=O)OC)[C@H](OC(C)=O)[C@]5(CC)C=CCN6CC[C@]43[C@@H]65)C2)C1
IC50 [1]: 40 nM

Compound: CC[C@]1(NC(=O)N2CCSCC2)C[C@H]2CN(CCc3c([nH]c4ccccc34)[C@@](C(=O)OC)(c3cc4c(cc3OC)N(C)[C@H]3[C@@](O)(C(=O)OC)[C@H](OC(C)=O)[C@]5(CC)C=CCN6CC[C@]43[C@@H]65)C2)C1
IC50 [4]: 50 nM | IC50 [7]: 0.88 nM | IC50 [1]: 2.1 nM

Now those with a lower IC50 [1], led by results:

IC50 [9]: 0.12 nM | IC50 [13]: 2.1 nM | IC50 [4]: 8.7 nM | IC50 [16]: 0.14 nM | IC50 [19]: 0.16 nM | IC50 [7]: 0.56 nM | IC50 [24]: 0.26 nM | IC50 [25]: 6.6 nM | IC50 [1]: 0.62 nM | IC50 [34]: 0.55 nM
Compound: CC[C@]1(NC(=O)N2CCc3ccccc3C2)C[C@H]2CN(CCc3c([nH]c4ccccc34)[C@@](C(=O)OC)(c3cc4c(cc3OC)N(C)[C@H]3[C@@](O)(C(=O)OC)[C@H](OC(C)=O)[C@]5(CC)C=CCN6CC[C@]43[C@@H]65)C2)C1
Ratio IC50 [8]: 10 | Ratio IC50 [2]: 13 | Ratio IC50 [3]: 80 | Ratio IC50 [10]: 10 | Ratio IC50 [11]: 10 | Ratio IC50 [12]: 10 | IC50 [14]: 0.19 nM | IC50 [15]: 0.52 nM | Ratio IC50 [5]: 10 | Ratio IC50 [17]: 10 | IC50 [18]: 0.02 nM | IC50 [20]: 1.2 nM | Ratio IC50 [6]: 10 | Ratio IC50 [21]: 10 | IC50 [22]: 0.06 nM | Ratio IC50 [23]: 10 | Ratio IC50 [26]: 10 | Ratio IC50 [27]: 10 | IC50 [28]: 0.3 nM | Ratio IC50 [29]: 10 | Ratio IC50 [30]: 10 | Ratio IC50 [31]: 10 | IC50 [32]: 0.13 nM | IC50 [33]: 0.13 nM | Ratio IC50 [35]: 10 | Ratio IC50 [36]: 10

IC50 [4]: 8.7 nM | IC50 [7]: 0.69 nM | IC50 [1]: 0.61 nM
Compound: CC[C@]1(NC(=O)N2Cc3ccc(OC)cc3C2)C[C@H]2CN(CCc3c([nH]c4ccccc34)[C@@](C(=O)OC)(c3cc4c(cc3OC)N(C)[C@H]3[C@@](O)(C(=O)OC)[C@H](OC(C)=O)[C@]5(CC)C=CCN6CC[C@]43[C@@H]65)C2)C1
Ratio IC50 [2]: 13 | Ratio IC50 [3]: 80 | Ratio IC50 [5]: 10 | Ratio IC50 [6]: 10
